Measurements published in patent US20090311217A1, “3-SUBSTITUTED-1H-INDOLE COMPOUNDS, THEIR USE AS MTOR KINASE AND PI3 KINASE INHIBITORS, AND THEIR SYNTHESES” (priority 2008, published 2009).
Where two headings read alike, the source gives them in different places.

How the values were obtained:
PI3K-alpha = PI3K-alpha (Homo sapiens, UniProt P42336); test: PI3K-alpha fluorescence polarization assay; assay type: biochemical; settings: read-out: PI3Kα Avg. IC50
PI3K-gamma = PI3K-gamma (Homo sapiens, UniProt P48736); test: PI3K-gamma fluorescence polarization assay; assay type: biochemical
Description: PI3K-Alpha, PI3K-Beta, PI3K-Gamma, and PI3K-delta Fluorescence Polarization Assay Protocols
PI3-Kinase reactions were performed in 5 mM HEPES, pH 7, 2.5 mM MgCl2, and 25 μM ATP, with diC8-PI(4,5)P2 (Echelon, Salt Lake City Utah) as substrate. Nunc 384-well black polypropylene fluorescent plates were used for PI3K assays. Reactions were quenched by the addition of EDTA to a final concentration of 10 mM. Final reaction volumes were 10 μl. For evaluation of PI3K inhibitors, 5 ng of enzyme (PI3K-alpha, beta, gamma, or delta) and 2.5 μM of substrate was used per […] reaction volume, and inhibitor concentrations ranged from 100 μM to 20 μM; the final level of DMSO in reactions never exceeded 2%. Reactions were allowed to proceed for one hour at 25° C. After 1 hour, GST-tagged GRP1 (general receptor for phosphoinositides) PH domain fusion protein was added to a final concentration of 100 nM, and BODIPY-TMRI(1,3,4,5)P4 (Echelon) was also added to a final concentration of 5 nM. Final sample volumes were 25 μl with a final DMSO concentration of 0.8%. Assay Plates were read on Perkin-Elmer Envision plate readers with appropriate filters for Tamra [BODIPY-TMRI(1,3,4,5)P4]. Data obtained were used to calculate enzymatic activity and enzyme inhibition by inhibitor compounds.

PI3K-gamma, sequence (P48736 whole entry, species assumed): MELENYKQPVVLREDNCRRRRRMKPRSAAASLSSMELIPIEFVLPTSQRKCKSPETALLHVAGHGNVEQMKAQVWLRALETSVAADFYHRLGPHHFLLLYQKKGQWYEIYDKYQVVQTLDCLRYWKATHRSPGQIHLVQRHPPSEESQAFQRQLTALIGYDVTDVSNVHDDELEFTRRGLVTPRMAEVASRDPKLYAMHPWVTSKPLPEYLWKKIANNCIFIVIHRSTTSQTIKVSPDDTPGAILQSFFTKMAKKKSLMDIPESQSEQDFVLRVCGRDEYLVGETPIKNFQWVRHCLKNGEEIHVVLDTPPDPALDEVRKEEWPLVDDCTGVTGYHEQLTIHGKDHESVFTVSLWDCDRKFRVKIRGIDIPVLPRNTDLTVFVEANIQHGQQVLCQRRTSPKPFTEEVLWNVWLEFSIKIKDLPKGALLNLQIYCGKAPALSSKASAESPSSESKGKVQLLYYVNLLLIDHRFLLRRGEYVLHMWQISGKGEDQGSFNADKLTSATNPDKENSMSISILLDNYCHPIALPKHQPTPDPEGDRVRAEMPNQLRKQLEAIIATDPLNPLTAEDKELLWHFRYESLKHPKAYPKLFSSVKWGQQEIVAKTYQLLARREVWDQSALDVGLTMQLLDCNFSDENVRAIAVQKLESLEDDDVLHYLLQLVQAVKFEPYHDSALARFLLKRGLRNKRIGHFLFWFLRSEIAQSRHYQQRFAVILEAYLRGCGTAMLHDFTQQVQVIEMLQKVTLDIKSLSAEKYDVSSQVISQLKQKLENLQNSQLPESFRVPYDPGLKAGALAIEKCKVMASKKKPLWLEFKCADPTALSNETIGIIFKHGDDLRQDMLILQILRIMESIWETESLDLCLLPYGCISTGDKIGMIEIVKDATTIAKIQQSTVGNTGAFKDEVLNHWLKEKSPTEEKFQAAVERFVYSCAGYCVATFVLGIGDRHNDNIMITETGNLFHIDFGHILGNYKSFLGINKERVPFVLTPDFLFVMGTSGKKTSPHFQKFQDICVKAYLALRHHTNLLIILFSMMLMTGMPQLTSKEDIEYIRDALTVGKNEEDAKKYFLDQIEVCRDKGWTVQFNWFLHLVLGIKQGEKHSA
PI3K-alpha, sequence (P42336 whole entry, species assumed): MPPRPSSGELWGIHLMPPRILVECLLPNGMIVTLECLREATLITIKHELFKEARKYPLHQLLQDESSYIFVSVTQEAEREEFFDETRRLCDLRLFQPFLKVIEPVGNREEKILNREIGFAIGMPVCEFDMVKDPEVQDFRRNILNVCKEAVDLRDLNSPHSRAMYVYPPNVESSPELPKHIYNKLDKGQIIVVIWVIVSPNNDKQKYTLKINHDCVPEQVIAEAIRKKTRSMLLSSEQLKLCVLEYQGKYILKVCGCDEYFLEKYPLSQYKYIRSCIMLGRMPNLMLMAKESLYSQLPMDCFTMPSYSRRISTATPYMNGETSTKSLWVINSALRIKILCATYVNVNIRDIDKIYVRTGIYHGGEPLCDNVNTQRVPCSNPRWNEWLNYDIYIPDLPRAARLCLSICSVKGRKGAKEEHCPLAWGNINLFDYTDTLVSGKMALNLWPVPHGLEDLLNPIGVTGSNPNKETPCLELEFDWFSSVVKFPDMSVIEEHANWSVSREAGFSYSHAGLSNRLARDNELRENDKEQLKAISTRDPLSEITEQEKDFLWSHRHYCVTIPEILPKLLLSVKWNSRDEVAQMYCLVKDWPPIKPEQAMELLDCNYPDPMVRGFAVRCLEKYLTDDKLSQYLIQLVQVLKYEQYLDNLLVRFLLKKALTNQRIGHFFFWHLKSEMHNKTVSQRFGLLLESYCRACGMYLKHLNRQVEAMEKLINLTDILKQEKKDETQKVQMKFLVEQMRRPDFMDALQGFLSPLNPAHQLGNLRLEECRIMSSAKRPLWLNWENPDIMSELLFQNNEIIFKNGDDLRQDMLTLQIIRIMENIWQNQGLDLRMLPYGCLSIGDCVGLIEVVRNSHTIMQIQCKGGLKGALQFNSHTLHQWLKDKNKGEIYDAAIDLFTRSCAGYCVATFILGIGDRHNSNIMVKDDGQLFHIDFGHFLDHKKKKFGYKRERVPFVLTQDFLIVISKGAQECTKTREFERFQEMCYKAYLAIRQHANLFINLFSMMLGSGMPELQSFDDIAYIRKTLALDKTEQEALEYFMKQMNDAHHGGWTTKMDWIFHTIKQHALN
PI3K-alpha, sequence (P27986 whole entry partner, species assumed): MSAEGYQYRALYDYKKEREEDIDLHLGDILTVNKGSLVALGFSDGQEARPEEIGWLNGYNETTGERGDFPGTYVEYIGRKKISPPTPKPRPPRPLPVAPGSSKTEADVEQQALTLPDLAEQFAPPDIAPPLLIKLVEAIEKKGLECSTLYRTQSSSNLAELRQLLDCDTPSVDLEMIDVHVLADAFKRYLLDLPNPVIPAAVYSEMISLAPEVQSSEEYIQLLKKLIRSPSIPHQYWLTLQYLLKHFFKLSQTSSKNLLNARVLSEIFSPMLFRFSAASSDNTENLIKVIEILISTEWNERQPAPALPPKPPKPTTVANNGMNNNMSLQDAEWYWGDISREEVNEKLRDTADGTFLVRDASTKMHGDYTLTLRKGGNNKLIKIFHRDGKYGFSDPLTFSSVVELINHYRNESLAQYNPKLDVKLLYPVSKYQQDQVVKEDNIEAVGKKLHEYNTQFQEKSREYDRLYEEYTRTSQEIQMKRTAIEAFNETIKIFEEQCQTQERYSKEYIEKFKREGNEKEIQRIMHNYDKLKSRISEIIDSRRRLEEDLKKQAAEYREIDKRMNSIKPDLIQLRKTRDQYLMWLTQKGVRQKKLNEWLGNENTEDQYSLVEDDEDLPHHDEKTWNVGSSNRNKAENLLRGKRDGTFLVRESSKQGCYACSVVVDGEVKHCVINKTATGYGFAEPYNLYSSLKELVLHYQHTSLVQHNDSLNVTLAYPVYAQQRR

| Compound | IC50 (PI3K-alpha) | IC50 (PI3K-gamma; PI3Kγ Avg. IC50) | IC50 (PI3K-gamma; read-out: PI3Kγ Avg. IC50) |
| --- | --- | --- | --- |
| CCc1cc(OC)cc2c(/C=C3\Oc4cc(O)ccc4C3=O)cn(CCN3CCN(C)CC3)c12 [Compound 473, (2Z)-2-({7-ethyl-5-methoxy-1-[2-(4-methylpiperazin-1-yl)ethyl]-1H-indol-3-yl}methylene)-6-hydroxy-1-benzofuran-3(2H)-one] | 162 nM | 2.61 µM | – |
| COc1ccc2c(c1)c(/C=C1\Oc3ccc(NC(=O)NCCO)cc3C1=O)cn2CCCN(C)C [Compound 554, 1-[(2Z)-2-({1-[3-(dimethylamino)propyl]-5-methoxy-1H-indol-3-yl}methylene)-3-oxo-2,3-dihydro-1-benzofuran-5-yl]-3-(2-hydroxyethyl)urea] | 73 nM | 5.26 µM | – |
| COc1ccc2c(c1)c(C=C1Oc3cccc(O)c3C1=O)c(C)n2CCCCN1CCN(C)CC1 [Example 135, 4-hydroxy-2-({5-methoxy-2-methyl-1-[4-(4-methylpiperazin-1-yl)butyl]-1H-indol-3-yl}methylene)-1-benzofuran-3(2H)-one] | 1300 nM | 4.77 µM | – |
| COC(=O)Nc1ccc2c(c1)C(=O)/C(=C/c1cn(CCCN(C)C)c3ccc(OC)cc13)O2 [Compound 538, methyl [(2Z)-2-({1-[3-(dimethylamino)propyl]-5-methoxy-1H-indol-3-yl}methylene)-3-oxo-2,3-dihydro-1-benzofuran-5-yl]carbamate] | 820 nM | > 10 µM | – |
| CCc1cc(OC)cc2c(/C=C3\Oc4cc(O)cc(O)c4C3=O)cn(CCN3CCN(C)CC3)c12 [Compound 512, (2Z)-2-({7-ethyl-5-methoxy-1-[2-(4-methylpiperazin-1-yl)ethyl]-1H-indol-3-yl}methylene)-4,6-dihydroxy-1-benzofuran-3(2H)-one] | 36.5 nM | 1.4 µM | – |
| CNC(=O)Nc1ccc2c(c1)C(=O)/C(=C/c1c(C)n(CCCN3CCC(O)C3)c3ccc(OC)cc13)O2 (stereo not drawn) [Compound 589, 1-[(2Z)-2-({1-[3-(3-hydroxypyrrolidin-1-yl)propyl]-5-methoxy-2-methyl-1H-indol-3-yl}methylene)-3-oxo-2,3-dihydro-1-benzofuran-5-yl]-3-methylurea] | 4.5 nM | 0.967 µM | – |
| CNC(=O)Nc1ccc2c(c1)C(=O)/C(=C/c1c(CN(C)CCN(C)C)[nH]c3ccc(OC)cc13)O2 [Compound 613, 1-[(2Z)-2-{[2-({[2-(dimethylamino)ethyl](methyl)amino}methyl)-5-methoxy-1Hindol-3-yl]methylidene}-3-oxo-2,3-dihydro-1-benzofuran-5-yl]-3-methylurea] | 12.5 nM | 0.153 µM | – |
| CNC(=O)Nc1ccc2c(c1)C(=O)/C(=C/c1c[nH]c3c(CN4CCOCC4)cc(OC)cc13)O2 [Compound 570, 1-[(2Z)-2-{[5-methoxy-7-(morpholin-4-ylmethyl)-1H-indol-3-yl]methylene}-3-oxo-2,3-dihydro-1-benzofuran-5-yl]-3-methylurea] | 8410 nM | 6.49 µM | – |
| COc1ccc2[nH]cc(/C=C3\Oc4ccc(NC(=O)NC5CCCCC5)cc4C3=O)c2c1 [Compound 488, 1-cyclohexyl-3-{(2Z)-2-[(5-methoxy-1H-indol-3-yl)methylene]-3-oxo-2,3-dihydro-1-benzofuran-5-yl}urea] | > 10000 nM | > 10 µM | – |
| CNC(=O)Nc1ccc2c(c1)C(=O)/C(=C/c1c[nH]c3ccc(OC)cc13)O2 [Compound 536, 1-{(2Z)-2-[(5-methoxy-1H-indol-3-yl)methylene]-3-oxo-2,3-dihydro-1-benzofuran-5-yl}-3-methylurea] | 58.5 nM | 0.545 µM | – |
| CNC(=O)Nc1cc(O)cc2c1C(=O)/C(=C/c1c[nH]c3ccc(OC)cc13)O2 [Compound 526, 1-{(2Z)-6-hydroxy-2-[(5-methoxy-1H-indol-3-yl)methylene]-3-oxo-2,3-dihydro-1-benzofuran-4-yl}-3-methylurea] | 6190 nM | > 10 µM | – |
| COC(=O)NC(=O)Nc1ccc2c(c1)C(=O)/C(=C/c1c[nH]c3ccc(OC)cc13)O2 [Compound 490, methyl ({(2Z)-2-[(5-methoxy-1H-indol-3-yl)methylene]-3-oxo-2,3-dihydro-1-benzofuran-5-yl}carbamoyl)carbamate] | 674 nM | > 10 µM | – |
| COc1ccc2[nH]cc(/C=C3\Oc4cc(O)cc(C(N)=O)c4C3=O)c2c1 [Compound 518, (2Z)-6-hydroxy-2-[(5-methoxy-1H-indol-3-yl)methylene]-3-oxo-2,3-dihydro-1-benzofuran-4-carboxamide] | 451 nM | 1.15 µM | – |
| 4-hydroxy-2-[(1-{2-[4-(2-hydroxyethyl)piperazin-1-yl]ethyl}-5-methoxy-2-methyl-1H-indol-3-yl)methylene]-1-benzofuran-3(2H)-one [Example 131] | 478 nM | – | 3.97 µM |
| CNC(=O)Nc1ccc2c(c1)C(=O)/C(=C/c1c(C)n(CCN3CCCCC3)c3ccc(OC)cc13)O2 [Compound 609, 1-[(2Z)-2-{[5-methoxy-2-methyl-1-(2-piperidin-1-ylethyl)-1H-indol-3-yl]methylidene}-3-oxo-2,3-dihydro-1-benzofuran-5-yl]-3-methylurea] | 15 nM | 0.446 µM | – |
| CNC(=O)Nc1ccc2c(c1)C(=O)/C(=C/c1c[nH]c3c(C#N)cc(OC)cc13)O2 [Compound 595, 1-{(2Z)-2-[(7-cyano-5-methoxy-1H-indol-3-yl)methylene]-3-oxo-2,3-dihydro-1-benzofuran-5-yl}-3-methylurea] | 222 nM | 1.53 µM | – |
| COc1ccc2c(c1)c(/C=C1\Oc3ccc(O)cc3C1=O)cn2CCCC#N [Compound 514, 4-{3-[(Z)-(5-hydroxy-3-oxo-1-benzofuran-2(3H)-ylidene)methyl]-5-methoxy-1Hindol-1-yl}butanenitrile] | 1380 nM | 4.1 µM | – |
| CNC(=O)Nc1ccc2c(c1)C(=O)/C(=C/c1c(C(=O)NCCN(C)C)[nH]c3ccc(OC)cc13)O2 [Compound 605, N-[2-(dimethylamino)ethyl]-5-methoxy-3-[(Z)-{5-[(methylcarbamoyl)amino]-3-oxo-1-benzofuran-2(3H)-ylidene}methyl]-1H-indole-2-carboxamide] | 19 nM | 0.315 µM | – |
| COc1ccc2[nH]cc(/C=C3\Oc4ccc(NC(=O)Nc5cccnc5)cc4C3=O)c2c1 [Compound 484, 1-{(2Z)-2-[(5-methoxy-1H-indol-3-yl)methylene]-3-oxo-2,3-dihydro-1-benzofuran-5-yl}-3-pyridin-3-ylurea] | 1660 nM | > 10 µM | – |
| COc1ccc2c(c1)c(C=C1Oc3cccc(O)c3C1=O)c(C)n2C [Example 121, 4-hydroxy-2-[(5-methoxy-1,2-dimethyl-1H-indol-3-yl)methylene]-1-benzofuran-3(2H)-one] | 317 nM | 5.43 µM | – |
| CNC(=O)Nc1ccc2c(c1)C(=O)/C(=C/c1c(C3=CCNCC3)n(CCN3CCN(C)CC3)c3ccc(OC)cc13)O2 [Compound 607, 1-[(2Z)-2-({5-methoxy-1-[2-(4-methylpiperazin-1-yl)ethyl]-2-(1,2,3,6-tetrahydropyridin-4-yl)-1H-indol-3-yl}methylidene)-3-oxo-2,3-dihydro-1-benzofuran-5-yl]-3-methylurea] | 4.5 nM | 4.22 µM | – |
| Cn1cc(/C=C2\Oc3cc(O)cc(O)c3C2=O)c2c(N3CCOCC3)cccc21 [Compound 496, (2Z)-4,6-dihydroxy-2-[(1-methyl-4-morpholin-4-yl-1H-indol-3-yl)methylene]-1-benzofuran-3(2H)-one] | 1040 nM | 4.77 µM | – |
| COc1cc(-c2cncnc2)c2c(c1)c(/C=C1\Oc3cc(O)cc(O)c3C1=O)cn2CCCC#N [Compound 503, 4-{3-[(Z)-(4,6-dihydroxy-3-oxo-1-benzofuran-2(3H)-ylidene)methyl]-5-methoxy-7-pyrimidin-5-yl-1H-indol-1-yl}butanenitrile] | 106 nM | 0.811 µM | – |
| COc1ccc2c(c1)c(C=C1Oc3c(ccc(O)c3O)C1=O)c(C)n2CCCCl [Example 124, 2-{[1-(3-chloropropyl)-5-methoxy-2-methyl-1H-indol-3-yl]methylene}-6,7-dihydroxy-1-benzofuran-3(2H)-one] | 64.5 nM | 1.22 µM | – |
| COc1cc(/C=C/CN2CCN(C)CC2)c2[nH]cc(/C=C3\Oc4cc(O)ccc4C3=O)c2c1 [Compound 545, (2Z)-6-hydroxy-2-({5-methoxy-7-[(1E)-3-(4-methylpiperazin-1-yl)prop-1-en-1-yl]-1H-indol-3-yl}methylene)-1-benzofuran-3(2H)-one] | 40.5 nM | 1.24 µM | – |
| Cn1cc(/C=C2\Oc3ccc(NC(=O)OC(C)(C)C)cc3C2=O)c2c(-c3ccccc3)cccc21 [Compound 532, tert-butyl {(2Z)-2-[(1-methyl-4-phenyl-1H-indol-3-yl)methylene]-3-oxo-2,3-dihydro-1-benzofuran-5-yl}carbamate] | > 10000 nM | > 10 µM | – |
| CNCCNC(=O)Nc1ccc2c(c1)C(=O)/C(=C/c1cn(CCN3CCN(C)CC3)c3ccc(OC)cc13)O2 [Compound 563, 1-[(2Z)-2-({5-methoxy-1-[2-(4-methylpiperazin-1-yl)ethyl]-1H-indol-3-yl}methylene)-3-oxo-2,3-dihydro-1-benzofuran-5-yl]-3-[2-(methylamino)ethyl]urea] | 35.5 nM | 5.22 µM | – |
